In patent US11633415B2, “Compounds and methods useful for treating or preventing cancers” (priority 2017, dated 2023):

Biological target: GST-tagged full-length human CK1α (Homo sapiens (Human), UniProt P48729)
Test: Kinase enzymatic assay, mobility shift on LabChip system (AC50)
Assay type: biochemical
Settings: mean AC50; 5 μM ATP; 1 μM Profiler Pro FL-Peptide 16 substrate
Method: Enzymatic assays were performed using a mobility shift assay on the LabChip system. Purified kinase protein was incubated with ATP, substrate, and assay buffer (20 mM Hepes—pH 7.5; 5 mM MgCl2, and 0.01% Triton X-100). The assay reaction was initiated with 5 μM ATP and with each compound present. Compounds were tested at the KM,ATP for the protein target (GST-tagged full-length human CK1α, available from Carna Biosciences, Japan) or over a range of ATP concentrations between 5 μM and 9 μM. […] AC50 values were determined using phosphorylated and unphosphorylated substrates.

Sequence of GST-tagged full-length human CK1α (P48729 whole entry): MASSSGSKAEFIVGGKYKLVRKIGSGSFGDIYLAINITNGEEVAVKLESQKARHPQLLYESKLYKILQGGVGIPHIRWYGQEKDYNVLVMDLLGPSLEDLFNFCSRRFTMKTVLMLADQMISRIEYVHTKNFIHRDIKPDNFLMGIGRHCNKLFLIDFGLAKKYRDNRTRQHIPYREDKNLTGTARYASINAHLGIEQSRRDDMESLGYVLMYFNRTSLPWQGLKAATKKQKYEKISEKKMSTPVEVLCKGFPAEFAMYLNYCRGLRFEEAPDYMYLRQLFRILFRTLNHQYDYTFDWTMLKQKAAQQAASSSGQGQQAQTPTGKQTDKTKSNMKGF

SMILES	AC50 [µM]
CCC(CC)COC(=O)C(C#N)c1nc2ccccc2nc1N1CCNC(C(C)C)C1 (stereo not shown)	1.39
CCC(CC)COC(=O)C(C#N)c1nc2ccccc2nc1N1CCNC(Cc2ccccc2)C1 (stereo not shown)	1.27
N#CC(C(=O)OCC1CCCCCC1)c1nc2ccccc2nc1N1CCNCC1 (stereo not shown)	0.355
CN1CCN(c2nc3ccccc3nc2C(C#N)C(=O)OCC2CCCCC2)CC1 (stereo not shown)	0.029
CC(C)COC(=O)C(C#N)c1nc2ccccc2nc1N1CCC(C(N)=O)CC1 (stereo not shown)	4.64
N#CC(C(=O)OCc1ccncc1)c1nc2ccccc2nc1N1CCNCC1 (stereo not shown)	0.468
N#CC(C(=O)OCC1CCCC1)c1nc2ccccc2nc1N1CCNCC1 (stereo not shown)	0.138
CCC(CC)COC(=O)C(C#N)c1nc2ccccc2nc1N1CCNC(c2ccccc2)C1 (stereo not shown)	2.22
CCC(CC)COC(=O)C(C#N)c1nc2ccccc2nc1N1CCN[C@@H](C)C1 (stereo partly shown)	1.22
CCC(CC)COC(=O)C(C#N)c1nc2ccccc2nc1N1CCNC(CC)C1 (stereo not shown)	0.958
CCC(CC)COC(=O)C(C#N)c1nc2ccccc2nc1N1CCNC(CO)C1 (stereo not shown)	0.517
N#CC(C(=O)OCC1CCCCC1)c1nccnc1N1CCNCC1 (stereo not shown)	0.304
CCC(CC)COC(=O)C(C#N)c1nc2ccccc2nc1N1CCNC(C(=O)OC)C1 (stereo not shown)	3.15
CCC(CC)COC(=O)C(C#N)c1nc2ccccc2nc1NC1CCNCC1 (stereo not shown)	1.33
CCC(CC)COC(=O)C(C#N)c1nc2ccccc2nc1N1CCNC(=O)C1 (stereo not shown)	1.74
N#CC(C(=O)NCC1CCCCC1)c1nc2ccccc2nc1N1CCNCC1 (stereo not shown)	1.76
N#CC(C(=O)OCc1cccnc1)c1nc2ccccc2nc1N1CCNCC1 (stereo not shown)	0.95
CCC(CC)COC(=O)C(C#N)c1nc2ccccc2nc1N1CCNC(C)C1 (stereo not shown)	0.434
N#CC(C(=O)OCc1ccc2ccccc2c1)c1nc2ccccc2nc1N1CCNCC1 (stereo not shown)	3.87
CCC(CC)COC(=O)C(C#N)c1nc2ccccc2nc1N1CCN[C@H](C)C1 (stereo partly shown)	0.333

SMILES	AC50 [µM]
N#C/C(C(=O)OCC1CCCCC1)=C1/Nc2c(F)cccc2N=C1N1CCNCC1	1.14
N#C/C(C(=O)OCC1CCCCC1)=C1/Nc2ccc(F)cc2N=C1N1CCNCC1	0.065
N#C/C(C(=O)NCc1ccccc1)=C1/Nc2ccccc2N=C1N1CCNCC1	1.92
N#C/C(C(=O)OCC1CCCCC1)=C1/Nc2cccc(F)c2N=C1N1CCNCC1	0.405
N#C/C(C(=O)OCC1CCCCC1)=C1/Nc2ccc([N+](=O)[O-])cc2N=C1N1CCNCC1	0.158
N#C/C(C(=O)OCC1CCCCC1)=C1/Nc2ccc(-c3ccccc3)cc2N=C1N1CCNCC1	0.27
N#C/C(C(=O)OCC1CCCCC1)=C1\C=C(N2CCNCC2)N=CN1	3.78
N#C/C(C(=O)OCC1CCCCC1)=C1/Nc2ccccc2C=C1N1CCNCC1	1.33
N#C/C(C(=O)OCC1CCCCC1)=C1/NC=NC=C1N1CCNCC1	0.467
N#C/C(C(=O)CCC1CCCCC1)=C1/Nc2ccccc2N=C1N1CCNCC1	3.15
CC(C)(C)COC(=O)C(C#N)c1nc2ccccc2nc1N1CCNCC1 (stereo not shown) [drawing 115]	0.151
CN1CCN(c2nc3ccccc3nc2C(C#N)C(=O)OCC(C)(C)C)CC1 (stereo not shown) [drawing 117]	0.822
N#CC(C(=O)OCc1ccccc1F)c1nc2ccccc2nc1N1CCNCC1 (stereo not shown) [drawing 123]	1.51
CCC(CC)COC(=O)C(C#N)c1nc2ccccc2nc1N1CCC(CN)CC1 (stereo not shown) [drawing 124]	2.6
CCC(CC)COC(=O)C(C#N)c1nc2ccccc2nc1N1CCC(N)CC1 (stereo not shown) [drawing 126]	4.22
N#CC(C(=O)OCc1ccc(F)cc1)c1nc2ccccc2nc1N1CCNCC1 (stereo not shown) [drawing 129]	2.73
N#CC(C(=O)OCc1ccccc1)c1nc2ccccc2nc1N1CCC(N)CC1 (stereo not shown) [drawing 131]	1.82
N#CC(C(=O)OCc1cccc(F)c1)c1nc2ccccc2nc1N1CCNCC1 (stereo not shown) [drawing 134]	0.353
N#CC(C(=O)OCc1cccc(N)c1)c1nc2ccccc2nc1N1CCNCC1 (stereo not shown) [drawing 141]	3.8
CCC(CC)COC(=O)C(C#N)c1nc2ccccc2nc1N1CCN(C)CC1 (stereo not shown) [drawing 142]	1.34
